Laboratory results reported in US20100137239A1, “GEMCITABINE COMBINATION THERAPY” (GLOUCESTER PHARMACEUTICALS, priority 2006, published 2010).
Values joined by “and” are separate entries in the source; they are usually repeats but may differ in a detail not shown here. Equal entries are not always repeated. “Also recorded” adds a separate entry of the source.

How the values were obtained:
p21^waf = assay: Immunoblot of p21^waf in PANC-1 xenograft tumors; type: in vivo, human; details: FK228 5 mg/kg Q4Dx3; gemcitabine 80 mg/kg Q3Dx4; tumors at study completion; vs controls
Description: Abstract: To examine activity and mechanism of FK228, antitumor efficacy was tested in PANC-1 pancreatic adenocarcinoma model representing transformed Ras, either as a single agent or in combination with gemcitabine. Following PANC-1 study completion, tumor and sera were obtained from: • the vehicle control; • FK228 dosed at 5 mg/kg once every four days for three treatments (Q4Dx3); • Gemcitabine at 80 mg/kg (Q3Dx4); and • the drug combination. Expression of c-Myc, acetylated histones 3 and 4, and p21^waf1 was compared between control and FK228 groups by immunoblotting and was quantified following actin normalization. Serum levels of putative tumor products b-FGF and MMP-2 were quantified by human-specific ELISA. […]
Tissue Biomarkers: Tumor levels of acetylated histone-4, histone-4, c-Myc, p21waf and β-actin were quantified by immunoblotting as described. […] The chemiluminescence signal was captured by autoradiography, quantified by densitometry and expressed as a ratio of actin in each sample lane. For each biomarker, means and standard errors were calculated in each treatment group. […]
Expression of c-Myc, acetylated histones 3 and 4, and p21^waf1 was compared between control and FK228 groups by immunoblotting and was quantified following actin normalization. Serum levels of putative tumor products b-FGF and MMP-2 were quantified by human-specific ELISA. […]

[1] = PANC-1 study: animal weight and drug toxicity
From the text: Model Information—Female nude mice (nu/nu) between 5 and 6 weeks of age weighing approximately 20 grams were obtained from Harlan, Inc. (Madison, Wis.). PANC-1, obtained from the ATCC, is a pancreas tumor cell line originating from a person^(1-2). BxPC-3, obtained from the American Type Culture Collection (ATCC), is a pancreas tumor cell line originating from a person^(3-4). PANC-1 Study: Animals were implanted subcutaneously (SC) by trocar with fragments of PANC-1 harvested from SC growing tumors in nude mice hosts. When tumors grew to approximately 135 cubic millimeters (mm^3) in size (17 days following implantation, animals were pair-matched by tumor size into treatment and control groups; each treatment group contained nine mice. BxPC-3 Study: Animals were implanted subcutaneously (SC) by trocar with fragments of BxPC-3 harvested from SC growing tumors in nude mice hosts. When tumors grew to approximately 85 cubic millimeters (mm^3) in size (19 days following implantation), animals were pair-matched by tumor size into treatment and control groups; each treatment group contained nine mice. Animals in both studies were ear-tagged and followed individually throughout the experiment.
Study Design and Dosing—Initial doses were administered on Day 1 following pair-matching; both experiments were carried out as tumor growth inhibition (TGT) studies. Animals were dosed intravenously (IV) via tail vein with FK228 once every four days for three treatments (Q4Dx3) or by intraperitoneal (IP) injection with gemcitabine once every three days for four treatments (Q3Dx4), either alone or in combination, at the doses listed below (Table 1). To serve as a negative control, FK228 vehicle (2% ethanol, 8% propylene glycol, 90% 0.9% saline) was injected on a Q4Dx3 schedule.
Animal Weights—Individual and group mean weights ±SD and percent weight change through Day 25 (PANC-1) or Day 29 (BxPC-3) were recorded twice weekly until study completion beginning Day 1. Final group mean weights ±SD and group nadir values are reported; weight data from individual animals experiencing technical or drug-related deaths was censored from final group calculations.
Moribundity/Mortality—Animals were observed twice weekly for general moribundity and daily for mortality. Animal deaths were assessed as drug-related or technical based on factors including gross observation and weight loss; reported animal death information includes type, number, and day of death for each group.
Statistics—Statistical analyses were carried out between treated and control groups comparing final weight, percent weight change, and tumor growth inhibition (Appendix III). For these groups, a two-tailed One-Way Analysis of Variance (ANOVA) followed by the Dunnett multiple comparisons test was employed. All analyses are performed using GraphPad Prism® software (version 4.0). Weight and tumor data from individual animals experiencing technical or drug-related deaths was censored from analysis.

[2] = test system: NIH-3T3 cells transformed by H, K, N-Ras and the rat Her-2/NeuT; assay: 4-day proliferation assay, transformed NIH-3T3 cell lines; type: cell-based, mouse; details: 2 nM romidepsin
Description: (§1) A series of transformed NIH-3T3 cell likes were generated and a proliferation assay was performed in the presence of 2, 3, or 4 nM romidepsin. FIG. 23 illustrates the transformed morphology of the cells. FIG. 24 presents graphs of cell proliferation.

B-Raf 600E cells = assay: 4-day proliferation assay, B-Raf 600E NIH-3T3 cells; type: cell-based, mouse; details: 2, 3, or 4 nM romidepsin
Description: as §1

[3] = FK228 2.5 mg/kg IV Q4Dx3, 2.5 mg/kg
[4] = FK228 5 mg/kg IV Q4Dx3, 5 mg/kg

Q: For `Nc1ccn([C@@H]2O[C@H](CO)[C@@H](O)C2(F)F)c(=O)n1` [Gemcitabine, gemcitabine], which “p21^waf expression” value (p21^waf) is on record?
A: downregulated; also recorded: down-regulated

Q: What about the “DRUG DEATHS TOTAL” value ([1]; Gemcitabine 40 mg/kg IP Q3Dx4) of the same compound?
A: 0/9 and 0

Q: What about the “FINAL WEIGHT (DAY 25) % CHANGE” value ([1]; Gemcitabine 40 mg/kg IP Q3Dx4) of the same compound?
A: +7%

Q: What about the “FINAL WEIGHT (DAY 25) MEAN(G) ± SD” value ([1]; Gemcitabine 40 mg/kg IP Q3Dx4) of the same compound?
A: 24±1 G

Q: And the “WEIGHT NADIR % CHANGE” value ([1]; Gemcitabine 40 mg/kg IP Q3Dx4)?
A: −2%

Q: What about the “WEIGHT NADIR DAY” value ([1]; Gemcitabine 40 mg/kg IP Q3Dx4) of the same compound?
A: 11

Q: And the “DRUG DEATHS TOTAL” value ([1]; Gemcitabine 80 mg/kg IP Q3Dx4)?
A: 0/9 and 0

Q: And the “FINAL WEIGHT (DAY 25) % CHANGE” value ([1]; Gemcitabine 80 mg/kg IP Q3Dx4)?
A: +12%

Q: And the “FINAL WEIGHT (DAY 25) MEAN(G) ± SD” value ([1]; Gemcitabine 80 mg/kg IP Q3Dx4)?
A: 26±3 G

Q: And the “WEIGHT NADIR % CHANGE” value ([1]; Gemcitabine 80 mg/kg IP Q3Dx4)?
A: −3%

Q: And the “WEIGHT NADIR DAY” value ([1]; Gemcitabine 80 mg/kg IP Q3Dx4)?
A: 11

Q: Which “FINAL WEIGHT (DAY 25) % CHANGE” value ([1]; FK228 2.5 mg/kg IV Q4Dx3) does the source give for `C/C=C1\NC(=O)[C@H]2CSSCC/C=C/[C@H](CC(=O)N[C@H](C(C)C)C(=O)N2)OC(=O)[C@H](C(C)C)NC1=O` [FK228, romidepsin] here?
A: +8%

Q: What about the “WEIGHT NADIR % CHANGE” value ([1]; FK228 2.5 mg/kg IV Q4Dx3) of the same compound?
A: −9%

Q: What about the “WEIGHT NADIR DAY” value ([1]; FK228 2.5 mg/kg IV Q4Dx3) of the same compound?
A: 11

Q: What about the “DRUG DEATHS TOTAL” value [1, 3] of the same compound?
A: 0/9 and 0

Q: And the “FINAL WEIGHT (DAY 25) MEAN(G) ± SD” value [1, 3]?
A: 21 ± 2 G

Q: What about the “FINAL WEIGHT (DAY 25) % CHANGE” value ([1]; FK228 5 mg/kg IV Q4Dx3) of the same compound?
A: +9%

Q: What about the “WEIGHT NADIR % CHANGE” value ([1]; FK228 5 mg/kg IV Q4Dx3) of the same compound?
A: −12%

Q: And the “WEIGHT NADIR DAY” value ([1]; FK228 5 mg/kg IV Q4Dx3)?
A: 11

Q: What about the “DRUG DEATHS TOTAL” value [1, 4] of the same compound?
A: 0/9 and 0

Q: What about the “FINAL WEIGHT (DAY 25) MEAN(G) ± SD” value [1, 4] of the same compound?
A: 25±2 G

Q: What about the “proliferation of transformed vs untransformed cells” value [2] of the same compound?
A: selectively inhibited

Q: And the “potency on B-Raf 600E cells” value (B-Raf 600E cells)?
A: not potent
